Test results: PubChem BioAssay AID1963846 (Molecular Pharmacology Branch, DTP, NCI, 2024)

Test system: 454973-116-R2-J3-PDC complex spheroid viability
Assay: Anticancer human tumor 454973-116-R2-J3-PDC patient-derived pancreatic carcinoma cell line growth inhibition [POLQ]
Settings: for IC50: curve of first compound; for viability, T/C: stronger effect = lower value
Outline: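 Growth inhibition in 3D: complex spheroids (tumor PDC, HUVEC, MSC) treated with POLQ inhibitor combinations; where Cmax unknown, highest tested concentration 10 microM, except SN-38 at 1 microM.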

[1] = second compound 0.0316 µM, first compound 0.0316 µM
[2] = second compound 0.0316 µM, first compound 0.1 µM
[3] = second compound 0.0316 µM, first compound 0.316 µM
[4] = second compound 0.0316 µM, first compound 1 µM
[5] = second compound 0.1 µM, first compound 0.0316 µM
[6] = second compound 0.1 µM, first compound 0.1 µM
[7] = second compound 0.1 µM, first compound 0.316 µM
[8] = second compound 0.1 µM, first compound 1 µM
[9] = second compound 0.316 µM, first compound 0.0316 µM
[10] = second compound 0.316 µM, first compound 0.1 µM
[11] = second compound 0.316 µM, first compound 0.316 µM
[12] = second compound 0.316 µM, first compound 1 µM
[13] = second compound 1 µM, first compound 0.0316 µM
[14] = second compound 1 µM, first compound 0.1 µM
[15] = second compound 1 µM, first compound 0.316 µM
[16] = second compound 1 µM, first compound 1 µM
[17] = second compound 3.16 µM, first compound 0.0316 µM
[18] = second compound 3.16 µM, first compound 0.1 µM
[19] = second compound 3.16 µM, first compound 0.316 µM
[20] = second compound 3.16 µM, first compound 1 µM
[21] = second compound 10 µM, first compound 0.0316 µM
[22] = second compound 10 µM, first compound 0.1 µM
[23] = second compound 10 µM, first compound 0.316 µM
[24] = second compound 10 µM, first compound 1 µM
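Further: spheroids exposed to drugs for seven days before measurement.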
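Wherever viability, T/C is given: percent viability relative to DMSO vehicle control wells taken as 100%.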

`CCc1c2c(nc3ccc(O)cc13)-c1cc3c(c(=O)n1C2)COC(=O)[C@]3(O)CC` + Nc1ccc(C#CCN(C(=O)Cc2ncc(C(F)(F)F)cc2C(F)(F)F)c2ccc(F)cc2)nn1 gave an IC50 (second compound 0.0316 µM) of under 3.16 nM, an IC50 (second compound 0.1 µM) of under 3.16 nM and an IC50 (second compound 0.316 µM) of under 3.16 nM. It also gave an IC50 (second compound 1 µM) of under 3.16 nM, an IC50 (second compound 3.16 µM) of under 3.16 nM and an IC50 (second compound 10 µM) of under 3.16 nM. The viability, T/C (second compound 0.0316 µM, first compound 0.00316 µM) was 25.3%, the viability, T/C (second compound 0.0316 µM, first compound 0.01 µM) was 11.3% and the viability, T/C [1] was 6.56%. The viability, T/C [2] was 4.56%, the viability, T/C [3] was 1.97% and the viability, T/C [4] was 1.11%. The viability, T/C (second compound 0.1 µM, first compound 0.00316 µM) was 19%, the viability, T/C (second compound 0.1 µM, first compound 0.01 µM) was 10.4% and the viability, T/C [5] was 6.53%. For the same compound, the viability, T/C [6] was 3.88%, the viability, T/C [7] was 2.75% and the viability, T/C [8] was 1%. For the same compound, the viability, T/C (second compound 0.316 µM, first compound 0.00316 µM) was 19.8%, the viability, T/C (second compound 0.316 µM, first compound 0.01 µM) was 11.3% and the viability, T/C [9] was 8.55%. For the same compound, the viability, T/C [10] was 4.38%, the viability, T/C [11] was 2.3% and the viability, T/C [12] was 0.79%. It also gave a viability, T/C (second compound 1 µM, first compound 0.00316 µM) of 21.4%, a viability, T/C (second compound 1 µM, first compound 0.01 µM) of 8.67% and a viability, T/C [13] of 6.81%. The viability, T/C [14] was 3.42%, the viability, T/C [15] was 1.98% and the viability, T/C [16] was 0.59%. It also gave a viability, T/C (second compound 3.16 µM, first compound 0.00316 µM) of 18.6%, a viability, T/C (second compound 3.16 µM, first compound 0.01 µM) of 9.44% and a viability, T/C [17] of 7.09%. The viability, T/C [18] was 4.06%, the viability, T/C [19] was 2.05% and the viability, T/C [20] was 0.6%. For the same compound, the viability, T/C (second compound 10 µM, first compound 0.00316 µM) was 19%, the viability, T/C (second compound 10 µM, first compound 0.01 µM) was 10.2% and the viability, T/C [21] was 5.83%. For the same compound, the viability, T/C [22] was 2.67%, the viability, T/C [23] was 1.43% and the viability, T/C [24] was 0.54%.
In the case of `Nc1ccn(C2OC(CO)C(O)C2(F)F)c(=O)n1` (centres undefined) + Nc1ccc(C#CCN(C(=O)Cc2ncc(C(F)(F)F)cc2C(F)(F)F)c2ccc(F)cc2)nn1, the IC50 (second compound 0.0316 µM) is reported as under 31.6 nM, the IC50 (second compound 0.1 µM) is reported as under 31.6 nM and the IC50 (second compound 0.316 µM) is reported as under 31.6 nM. For the same compound, the IC50 (second compound 1 µM) was under 31.6 nM, the IC50 (second compound 3.16 µM) was under 31.6 nM and the IC50 (second compound 10 µM) was under 31.6 nM. The viability, T/C [1] was 6.99%, the viability, T/C [2] was 8.25% and the viability, T/C [3] was 7.01%. For the same compound, the viability, T/C [4] was 6.38%, the viability, T/C (second compound 0.0316 µM, first compound 3.16 µM) was 8.02% and the viability, T/C (second compound 0.0316 µM, first compound 10 µM) was 5.63%. For the same compound, the viability, T/C [5] was 8.85%, the viability, T/C [6] was 7.54% and the viability, T/C [7] was 7.93%. For the same compound, the viability, T/C [8] was 6.21%, the viability, T/C (second compound 0.1 µM, first compound 3.16 µM) was 7.06% and the viability, T/C (second compound 0.1 µM, first compound 10 µM) was 5.26%. For the same compound, the viability, T/C [9] was 7.49%, the viability, T/C [10] was 6.66% and the viability, T/C [11] was 6.67%. The viability, T/C [12] was 7.27%, the viability, T/C (second compound 0.316 µM, first compound 3.16 µM) was 6.52% and the viability, T/C (second compound 0.316 µM, first compound 10 µM) was 5.87%. It also gave a viability, T/C [13] of 9.44%, a viability, T/C [14] of 6.21% and a viability, T/C [15] of 6.52%. For the same compound, the viability, T/C [16] was 6.07%, the viability, T/C (second compound 1 µM, first compound 3.16 µM) was 6.68% and the viability, T/C (second compound 1 µM, first compound 10 µM) was 5.65%. It also gave a viability, T/C [17] of 9.42%, a viability, T/C [18] of 6.2% and a viability, T/C [19] of 6.31%. The viability, T/C [20] was 6.8%, the viability, T/C (second compound 3.16 µM, first compound 3.16 µM) was 7.81% and the viability, T/C (second compound 3.16 µM, first compound 10 µM) was 5.38%. It also gave a viability, T/C [21] of 7.43%, a viability, T/C [22] of 5.82% and a viability, T/C [23] of 5.66%. For the same compound, the viability, T/C [24] was 6.28%, the viability, T/C (second compound 10 µM, first compound 3.16 µM) was 7.1% and the viability, T/C (second compound 10 µM, first compound 10 µM) was 4.05%.
